Reference: article PMC6300358, “Preacinetobactin not acinetobactin is essential for iron uptake by the BauA transporter of the pathogen Acinetobacter baumannii” (eLife, 2018)
pKd: −log10 of the molar value.

Target: T1, BauA (Acinetobacter baumannii, UniProt Q76HJ9)
T1 construct: mature protein (signal peptide removed); residues 33 to 703 well defined in the apo structure
Assay: ITC (Kd […] at Fe3+:siderophore […]; […] at […]) and […] Å crystal structure
Type: binding

T1 sequence (Q76HJ9 entry or part of it): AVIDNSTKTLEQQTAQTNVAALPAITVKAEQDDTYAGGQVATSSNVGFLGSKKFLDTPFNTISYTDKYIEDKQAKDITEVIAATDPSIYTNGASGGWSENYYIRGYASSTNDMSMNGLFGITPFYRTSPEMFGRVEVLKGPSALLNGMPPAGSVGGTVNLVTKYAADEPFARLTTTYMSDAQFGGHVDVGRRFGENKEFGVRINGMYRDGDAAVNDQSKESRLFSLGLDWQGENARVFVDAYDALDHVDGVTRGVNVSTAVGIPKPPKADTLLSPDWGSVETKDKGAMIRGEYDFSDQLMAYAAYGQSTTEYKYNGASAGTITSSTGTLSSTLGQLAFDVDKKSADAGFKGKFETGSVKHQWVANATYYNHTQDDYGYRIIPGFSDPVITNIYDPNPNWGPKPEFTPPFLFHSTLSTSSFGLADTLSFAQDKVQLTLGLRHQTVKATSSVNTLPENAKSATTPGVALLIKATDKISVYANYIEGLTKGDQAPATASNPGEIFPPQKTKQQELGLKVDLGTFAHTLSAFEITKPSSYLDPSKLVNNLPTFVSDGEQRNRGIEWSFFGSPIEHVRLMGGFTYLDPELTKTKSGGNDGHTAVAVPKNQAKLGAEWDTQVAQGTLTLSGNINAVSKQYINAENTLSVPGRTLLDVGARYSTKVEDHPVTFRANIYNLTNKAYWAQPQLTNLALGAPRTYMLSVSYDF

Question: With `C[C@H]1OC(c2cccc(O)c2O)=N[C@@H]1C(=O)N(O)CCc1cnc[nH]1` [preacinetobactin] as the compound, how does the pKd read?
Answer: Its pKd is 7.08.
